In test [1] the test system is experimental photothrombosis. Nature of the test: Experimental photothrombosis model, arterial blood velocity. Type of test: in vivo, Wistar male rats. On the procedure: The studies were done on Wistar male rats with mass of 230±30 g (laboratory animals nursery “Rappolovo”, RAMS). The animals were kept with unlimited food (standard ration for laboratory rats K-120 by <<Inform-korm>>, Russia) and water allowance. […]
Thrombosis modeling: the drugs were introduced into left femoral vein, in 50 min afterwards 1 ml of Bengal rose A photosensitizer (Acros Organics, USA) solution was introduced with dose of 17 mg/kg [Boselli 2007, Petrischev 2009]. Then the incision of internal surface of animal right thigh about 2 cm in length was made. The section of the femoral vein about 5 mm in length was released from surrounding tissues and separated from neurovascular bundle. Beneath this section of the vein the black non-transparent plastic strip 3 mm in width was laid to screen off the vein and surrounding tissues from radiation. The irradiation was done using diode laser <<DPSS-laser>> (Diode Pumped Solid State Laser, South Korea) with 532 nm wavelength and 60 mW power. The area of irradiation was 1 mm^2, exposing time was 40 min. The blood flow in femoral artery was measured by high frequency Doppler ultrasonography method (<<Minimax-Doppler-K>> apparatus, frequency of sensor was 20 MHz). The blood velocity alteration due to irradiation was measured (Table 9).

The subject of test [2] is Ristocetin-induced thrombocyte aggregation. Nature of the test: Ristocetin-induced thrombocyte aggregation, donor human thrombocyte enriched plasm. It counts as cell-based. The settings on record: ristocetin inductor; for MA (60 c), %: amplitude at 60 s. A digest of the protocol: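 Citrated donor human platelet-rich plasma, normalized to 200-250×10^9/L platelets, preincubated with compound in Tris-HCl pH 7.4 for 5 min at 37 °C. Aggregation induced by ristocetin (reagent diluted to 12 mg/ml) and followed turbidimetrically with stirring at 37 °C. Maximum amplitude, as % transmittance versus platelet-poor plasma, read at 60 s.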

We go through 1 molecule from patent US9249115B2, “N,N1 substituted piperazines having combined antiaggregant, anticoagulant and vasodilatory activity, and method for producing same” (Vertex Closed Joint Stock Company, priority 2011, dated 2016).

The structures appear in SMILES notation.

`O=C(O)/C=C/c1ccc(Cn2ccnc2)cc1` [Ozagrel, reference compound]: the “V, cm/s (arterial blood velocity)” value in test [1] (0.01 mmol/kg, 0 min of irradiation) is on record as 10.9 ± 2.9 cm/s; in test [1] (0.01 mmol/kg, 10 min of irradiation) it was 5.7 ± 1.8 cm/s; in test [1] (0.01 mmol/kg, 20 min of irradiation), “Absence of blood flow”; in test [1] (0.01 mmol/kg, 30 min of irradiation), “Absence of blood flow”; in test [1] (0.01 mmol/kg, 40 min of irradiation), “Absence of blood flow”; in test [1] (0.025 mmol/kg, 0 min of irradiation) it was 9.0 ± 2.7 cm/s. Also, the “V, cm/s (arterial blood velocity)” value is 5.1 ± 1.7 cm/s in test [1] (0.025 mmol/kg, 10 min of irradiation); 3.8 ± 1.0 cm/s in test [1] (0.025 mmol/kg, 20 min of irradiation); 5.5 ± 1.4 cm/s in test [1] (0.025 mmol/kg, 30 min of irradiation); 5.8 ± 1.7 cm/s in test [1] (0.025 mmol/kg, 40 min of irradiation). Further, the “(MAx-MA0): MA0 * 100% (Ozagrel: (MA0-MAx): MA0 * 100%)” value in test [2] (1.25 mmol/L) came to 8.0%; in test [2] (2.5 mmol/L) it was 28.4%; in test [2] (5.0 mmol/L), 44.1%. Further, the “MA (60 c), %” value was determined as 58.6 ± 9.1% in test [2] (1.25 mmol/L), 45.6 ± 9.5% in test [2] (2.5 mmol/L) and 35.6 ± 8.5% in test [2] (5.0 mmol/L).
